# From PMC5423977, “Safety, pharmacokinetics, and pharmacodynamics of BMS-986142, a novel reversible BTK inhibitor, in healthy participants” (European Journal of Clinical Pharmacology, 2017)
# Values joined by “and” are separate entries in the source; they are usually repeats but may differ in a detail not shown here. Equal entries are not always repeated. Where two headings read alike, the source gives them in different places.
# Legend:
# [1] = Plasma pharmacokinetics of BMS-986142, MAD; assay type: in vivo, human; conditions: for AI_AUC geometric mean (%CV): MAD; for AI_AUC geometric mean (%CV) / AUC / Cmax / concentration at 14 day / Tmax / half-life: n = 6; for AUC / Cmax / concentration at 14 day / Tmax / half-life: human, plasma, oral; for AUC: read-out: AUC(TAU) geometric mean (%CV); for Cmax: read-out: Cmax geometric mean (%CV); for concentration at 14 day: read-out: Cmin geometric mean (%CV); for Tmax: read-out: Tmax median (min, max); for half-life: read-out: T1/2 mean (SD) (converted)
# Method: Eligible participants were confined to the clinical facility (WCCT Global, LLC, Cypress, CA) the day before dosing (day −1) and randomized to receive SAD or MAD treatment under fasting conditions for 10 h. In the SAD group, eight healthy non-Japanese participants were assigned to each of up to six sequential dose panels (single oral doses of 5, 15, 50, 100, 300, and 900 mg BMS-986142) or placebo. Within each dose panel, participants were randomized in a 3:1 ratio to receive BMS-986142 (n = 6) or placebo (n = 2). In the MAD group, eight healthy non-Japanese participants were assigned to each of four sequential dose panels (daily oral doses of 25, 75, 200, and 350 mg BMS-986142) or placebo. Within each dose panel, participants were randomized in a 3:1 ratio to receive once-daily (QD) doses of BMS-986142 or placebo from day 1 to day 14 (Online Resource 1). Escalation to the next dose level in SAD and MAD was conducted after safety assessment had been completed and the treatment was considered safe and well tolerated. Additionally, dose levels in MAD were selected not to exceed the steady-state exposure of BMS-986142 (AUC: 22,920 ng h/mL) at NOAEL in rats obtained from a 1-month GLP toxicology study.
# Blood samples for the measurement of BMS-986142 were collected up to 168 h after dosing of BMS-986142 on day 1 for participants in SAD. In MAD, blood samples were collected up to 24 h on day 1 and up to 120 h on day 14 (the last day of treatment). Blood samples for the measurement of MTX were collected up to 48 h after dosing of MTX on days 1 and 8.
# Plasma samples were analyzed for BMS-986142 levels with a validated method using liquid chromatography tandem mass spectrometry (LC-MS/MS) detection. The analyte was extracted from 50 μL of plasma using a liquid–liquid extraction method. Methyl tert-butyl ether was used as the extraction solvent. The lower limit of quantification (LLOQ) was 1.00 ng/mL in plasma. Plasma samples were analyzed for methotrexate levels using LC-MS/MS detection. Analytes were isolated from 50 μL plasma through solid phase extraction using Waters Oasis MAX, 10-mg, 96-well SPE plates. The final extract was analyzed using LC-MS/MS detection. LLOQ was 1.00 ng/mL in plasma. Detailed methodology quantitating the concentration level of BMS-986142 and MTX is provided in Online Resource 10.
# Individual subject pharmacokinetic parameters for BMS-986142 and MTX were derived by a non-compartmental method using validated PK software (WinNonLin version 6.3; Pharsight Corporation, Mountain View, CA, USA). The following PK parameters for BMS-986142 and MTX were derived from plasma concentration versus time data: maximum observed plasma concentration (Cmax); minimum observed plasma concentration (Cmin); time to maximum observed plasma concentration (Tmax); area under the plasma concentration-time curve from time zero to the time of the last quantifiable concentration (AUC(0-T)), from time zero extrapolated to infinite time (AUC(inf)), and in one dosing interval (AUC(TAU)); terminal plasma half-life (T1/2); and AUC accumulation index (AI_AUC). AI_AUC was calculated to divide AUC(TAU) on day 14 by AUC(TAU) on day 1.
# Summary statistics were tabulated for all PK parameters by treatment and study days. Geometric mean (Gmean) and coefficient of variation (CV) are presented for Cmax, AUC(0-T), AUC(inf), AI_AUC, Cmin, and AUC(TAU); arithmetic mean and standard deviation (SD) are presented for T1/2; and median and range are presented for Tmax. Dose proportionality was assessed using the previously described power model. Briefly, the simple linear regression was applied to the natural log of the PK parameters on the natural log of dose using the following equation (Eq. 1).1 ElogPKParameterDose=α+β∗logDose.
# A slope (β) equal to 1 would indicate perfect dose proportionality. For each PK parameter (Cmax, AUC(0-T), AUC(TAU), and AUC(inf)), point estimates and 90% CI of the slopes were calculated.
# [2] = test system: CD69 expression on B cells; experiment: Ex vivo anti-IgD-dextran induced CD69 expression on B cells in whole blood; assay type: cell-based, human
# Method: To assess the functional effect of BMS-986142 on a relevant pathway in the targeted cells, whole blood was stimulated ex vivo with anti-IgD-dextran to activate signal transduction through the B cell antigen receptor. B cells, identified by CD20, were assessed for expression of CD69. Blood was incubated without addition of anti-IgD-dextran to serve as a negative control. Samples were incubated for 24 h at 37 °C, and then fixed and stained for CD20 and CD69. CD69 expression was quantified by standardized flow cytometry. Fluorescence intensity was measured and reported in units of mean equivalents of soluble fluorescein (MESF). Background CD69 level was measured from samples without the addition of anti-IgD-dextran and was subtracted from the stimulated value. The anti-IgD specific CD69 induction was used for analysis. The result for each sample was expressed as a percentage inhibition relative to the pre-dose sample.
# CD69 inhibition by BMS-986142 was tabulated by treatment and time, and corresponding changes from baseline were calculated and summarized. The inhibition of B cell receptor-mediated CD69 expression by BMS-986142 was descriptively summarized by treatment and study days. An exposure-response analysis was applied to characterize the relationship between BMS-986142 concentration and CD69 inhibition using a Bayesian Emax model. […]
# [3] = both sexes, MAD day 14, 25 mg QD
compound,measurement,setting,value
"Cc1c(-c2c(F)cc(C(N)=O)c3[nH]c4c(c23)CC[C@H](C(C)(C)O)C4)cccc1-n1c(=O)c2cccc(F)c2n(C)c1=O [BMS-986142, 6-fluoro-5-(R)-(3-(S)-(8-fluoro-1-methyl-2,4-dioxo-1,2-dihydroquinazolin-3(4H)-yl)-2-methylphenyl)-2-(S)-(2-hydroxypropan-2-yl)-2,3,4,9-tetrahydro-1H-carbazole-8-carboxamide]",Accumulation (accumulation index for AUC),[1]; MAD 25-350 mg QD,minimal to modest accumulation
same,AI_AUC geometric mean (%CV),"[1]; AUC(TAU) day 14 / day 1, 25 mg QD",1.57 (22)
same,AI_AUC geometric mean (%CV),"[1]; AUC(TAU) day 14 / day 1, 75 mg QD",1.23 (31)
same,AI_AUC geometric mean (%CV),"[1]; AUC(TAU) day 14 / day 1, 200 mg QD",1.23 (40)
same,AI_AUC geometric mean (%CV),"[1]; AUC(TAU) day 14 / day 1, 350 mg QD",0.984 (32)
same,AUC,[1]; [3],539 ng·h/mL
same,Cmax,[1]; [3],56 ng/mL
same,concentration at 14 day,[1]; [3],7.85 ng/mL
same,Tmax,[1]; [3],2 h
same,half-life,"[1]; MAD day 14, 25 mg QD",654 min
same,AUC,"[1]; MAD day 14, 75 mg QD",2470 ng·h/mL
same,Cmax,"[1]; MAD day 14, 75 mg QD",281 ng/mL
same,concentration at 14 day,"[1]; MAD day 14, 75 mg QD",27.9 ng/mL
same,half-life,"[1]; MAD day 14, 75 mg QD",642 min
same,Tmax,"[1]; MAD day 14, 75 mg QD",2 h
same,AUC,"[1]; MAD day 14, 200 mg QD",5530 ng·h/mL
same,Cmax,"[1]; MAD day 14, 200 mg QD",592 ng/mL
same,concentration at 14 day,"[1]; MAD day 14, 200 mg QD",67.6 ng/mL
same,half-life,"[1]; MAD day 14, 200 mg QD",660 min
same,Tmax,"[1]; MAD day 14, 200 mg QD",2 h
same,AUC,"[1]; MAD day 14, 350 mg QD",10700 ng·h/mL
same,Cmax,"[1]; MAD day 14, 350 mg QD",1020 ng/mL
same,concentration at 14 day,"[1]; MAD day 14, 350 mg QD",166 ng/mL
same,half-life,"[1]; MAD day 14, 350 mg QD",612 min
same,Tmax,"[1]; MAD day 14, 350 mg QD",1.5 h
same,IC50,"[2]; Homo sapiens, B-cell, plasma concentration, Bayesian Emax model, SAD and MAD data, read-out: IC50, concentration to inhibit 50% of CD69 expression",145 nM and 0.083 µg/mL
same,Mean maximal inhibition of CD69 expression,[2]; dose levels greater than 100 mg,~100%
